Where a SMILES comes first, the peptide text is derived from it. Bridges are numbered along the chain shown (N, C = ends). The star is where a group is joined. Cy5(nonsulfonated) = CN1C(=CC=CC=CC2=[N+](CCCCCC(=O)*)c3ccccc3C2(C)C)C(C)(C)c2ccccc21; DOTA = O=C(O)CN1CCN(CC(=O)O)CCN(CC(=O)*)CCN(CC(=O)O)CC1
Columns and labels:
[1] = target: T1, ADAMTS4 in the aortic wall of ApoE−/− mice (Mus musculus, UniProt Q8BNJ2); test: LA-ICP-MS spatial localization of Gd in the aortic wall; format: in vivo; conditions: 10 µm cryosections, n = 3 per time point
T1 construct: from tissue
T1 sequence (Q8BNJ2 209-833): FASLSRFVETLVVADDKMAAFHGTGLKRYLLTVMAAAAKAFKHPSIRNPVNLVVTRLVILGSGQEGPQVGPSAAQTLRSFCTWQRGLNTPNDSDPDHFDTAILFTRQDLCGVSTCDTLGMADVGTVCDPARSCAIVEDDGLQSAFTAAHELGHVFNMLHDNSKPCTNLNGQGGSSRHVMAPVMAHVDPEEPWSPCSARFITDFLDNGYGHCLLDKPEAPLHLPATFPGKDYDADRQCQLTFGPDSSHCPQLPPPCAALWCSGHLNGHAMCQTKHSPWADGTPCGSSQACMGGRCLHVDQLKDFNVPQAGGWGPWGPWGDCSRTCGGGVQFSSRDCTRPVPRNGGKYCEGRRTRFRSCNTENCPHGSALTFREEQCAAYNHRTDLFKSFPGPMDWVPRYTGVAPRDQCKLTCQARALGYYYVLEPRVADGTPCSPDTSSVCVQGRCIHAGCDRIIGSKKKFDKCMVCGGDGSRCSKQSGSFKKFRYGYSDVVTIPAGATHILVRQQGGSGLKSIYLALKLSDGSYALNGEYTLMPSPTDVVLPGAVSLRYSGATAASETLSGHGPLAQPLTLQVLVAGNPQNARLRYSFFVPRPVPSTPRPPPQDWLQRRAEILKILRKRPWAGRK
Protocol: Aortic tissues were cut into 10 µm cryosections at −20 °C and mounted on SuperFrost Plus adhesion slides (Thermo Scientific, Waltham, MA, USA). Laser ablation inductively coupled plasma mass spectrometry (LA-ICP-MS) analysis was performed on a commercial LA system (NWR-213, ESI, Bozeman, MT, USA) equipped with a two-volume sample chamber coupled to a sector field ICP-MS (Element XR, Thermo Fisher Scientific, Bremen, Germany) (Supplementary Table 6).
Helium was used as the carrier gas, and argon was added before reaching the torch using a Y-piece (Supplementary Table 7). The ICP-MS was tuned for maximum ion intensity and good signal stability (RSD < 5%), keeping the oxide ratio (ThO/Th) below 1% during the continuous ablation of a microscopic glass slide. Matrix-matched agarose gel standards cast on glass slides were used for drift control and calibration. These standards contain Gd concentrations between 26.6 pg mm^−2 and 600.1 pg mm^−2. Averaged intensities of six line-scans per standard were used for calibration. Data visualization was done in Origin 2022 (OriginLab Corporation, Northampton, MA).

ADAMTS4 = target: T2, ADAMTS4 (Homo sapiens, UniProt O75173); test: MST instrument, ligand-dependent fluorescence change, Cy5-labeled peptides vs ADAMTS4 (incl. alanine scan); format: binding; conditions: Cy5-labeled peptide 3 nM, 25 °C, n = 3
T2 construct: This is consistent with the recombinant proteins, we used in the screening process; purchased BioTeZ Berlin-Buch GmbH 30 400 102
T2 sequence (O75173 213-685): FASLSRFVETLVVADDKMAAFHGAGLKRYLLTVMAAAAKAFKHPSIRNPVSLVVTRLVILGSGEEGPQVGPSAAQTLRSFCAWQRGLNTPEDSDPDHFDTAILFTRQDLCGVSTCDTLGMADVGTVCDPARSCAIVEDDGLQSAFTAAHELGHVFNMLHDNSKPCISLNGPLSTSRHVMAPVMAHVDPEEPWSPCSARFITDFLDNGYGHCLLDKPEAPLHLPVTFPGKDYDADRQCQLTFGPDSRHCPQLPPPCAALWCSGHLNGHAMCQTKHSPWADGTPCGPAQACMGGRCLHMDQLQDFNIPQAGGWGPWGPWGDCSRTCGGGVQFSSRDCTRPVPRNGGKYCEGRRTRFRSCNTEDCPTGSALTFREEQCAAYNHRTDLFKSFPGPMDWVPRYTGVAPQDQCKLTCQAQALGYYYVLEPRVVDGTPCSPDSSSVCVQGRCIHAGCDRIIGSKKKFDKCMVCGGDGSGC
Protocol: Microscale thermophoresis (MST) was performed on a Monolith Pico (NanoTemper, Munich, Germany). The Cy5-labeled peptides were diluted into the MST buffer (150 mM NaCl, 50 mM TRIS-HCl, 5 mM CaCl2, and Tween-20) to reach a dilution of 6 nM. ADAMTS4, ADAMTS5, and ADAMTS1 were directly used with the supplied concentration. For ADAMTS4, the starting concentration was 4.96 µM, while for ADAMTS1 it was 4.88 µM and for ADAMTS5 it was 2.46 µM. […] 20 µl of the protein solutions were transferred into a PCR tube. 10 µl of this first vial was transferred into a second vial and mixed by pipetting with 10 µl of the MST buffer. The dilution series was continued 14 times. From tube 16, 10 µl were removed. Into all 16 tubes, 10 µl of the respective peptide solution were added and mixed by pipetting. The samples were incubated for 20 min and subsequently transferred to premium capillaries (NanoTemper, Munich, Germany). The capillaries were transferred into the Monolith tray and measured with 10% excitation power on the pico-red excitation on high MST power at 25 °C. Analysis was performed with MO.Affinity Analysis v3.0.1 (NanoTemper, Munich, Germany) and Origin 2022 (OriginLab Corporation, Northampton, MA). […] We checked for ADAMTS4 and the ADAMTS4-specific-Cy5-labeled probe via a saturation test for specifying the ligand-dependent fluorescence change. Therefore, the three highest ligand concentrations and the three lowest ligand concentrations of the measurement were used and centrifuged for 15 min at 16060 x g at 20 °C. Of each concentration, 7 µl were picked and mixed with 7 µl of a 10 M urea solution each. The samples were heated at 95 °C for 5 min and measured in the MST. […] Each measurement was repeated three times independently and the binding constant was calculated by merging all three measurements. […] The data were normalized using MO Affinity Analysis v3.0.1 and the fraction bound [−] was shown. […] Therefore, the percentage variance of the values to the average was plotted.
All measurements were performed with 10% LED power, high MST power and at 25 °C. The ligand dependent fluorescence change was used for determining the binding. […] The concentrations of the peptide were kept constant (3 nM in the measurement), while the proteins were diluted in the same manner as for ADAMTS4. […] The Cy5-labeled peptides (3 nM in the measurement) were kept constant, while ADAMTS4 was diluted in the same manner for each peptide (n=3 biologically independent measurements for each peptide; the data are presented as mean values ± SD). […] MST: microscale thermophoresis; nM: nanomolar; His: L-histidine; LED: light-emitting diode; n/a: not available; KD: binding constant.

## N=C(N)NCCC[C@@H]1NC(=O)[C@H](CCCNC(=N)N)NC(=O)[C@H](CO)NC(=O)[C@@H](N)CSSC[C@@H](C(=O)N[C@@H](CO)C(=O)NCC(=O)NCC(=O)N[C@@H](CO)C(=O)NCC(=O)NCC(=O)N[C@@H](CCCCNC(=O)CN2CCN(CC(=O)O)CCN(CC(=O)O)CCN(CC(=O)O)CC2)C(=O)NCC(N)=O)NC(=O)CNC1=O (Gd complex, metal not drawn) [ADAMTS4-specific probe] (H-CSRRGCSGGSGGK(DOTA)G-NH2; disulfide 1-6)
[1]
  colocalization of gadolinium with areas positive for ADAMTS4: strong colocalization

## C[N+]1=C(C=CC=CC=C2N(CCCCCC(=O)NCCCC[C@H](NC(=O)CNC(=O)CNC(=O)[C@H](CO)NC(=O)CNC(=O)CNC(=O)[C@H](CO)NC(=O)[C@@H]3CSSC[C@H](N)C(=O)N[C@@H](CO)C(=O)N[C@@H](CCCNC(=N)N)C(=O)N[C@@H](CCCNC(=N)N)C(=O)NCC(=O)N3)C(=O)NCC(N)=O)c3ccccc3C2(C)C)C(C)(C)c2ccccc21 [Cy5-labeled probe] (H-CSRRGCSGGSGGK(Cy5(nonsulfonated))G-NH2; disulfide 1-6; N-terminus and C-terminus assumed)
ADAMTS4
  binding to ADAMTS4 (ligand-dependent fluorescence change), in words: a ligand dependent fluorescence change occurs

— publication PMC9126943, “ADAMTS4-specific MR probe to assess aortic aneurysms in vivo using synthetic peptide libraries” (Nature Communications, 2022)
